# Reference: patent US20220119375A1, “3-ARYLOXY-3-ARYL-PROPYLAMINE COMPOUND AND USES THEREOF” (Zhangzhou Pien Tze Huang Pharmaceutical Co., Ltd., priority 2018, published 2022)
# System: C57BL/6 mice, ICS model
# Assay: mice ICS model (fibromyalgia), mechanical allodynia test
# Type: in vivo, mouse
# Conditions: 10 mg/kg oral
# Description: After completely dissolved, the duloxetine was administered orally. The volume of administration was 5 ml/kg.
# 10 mg/kg compound Ic-1:17 mg of compound Ic-1 was weighed, dissolved in saline and diluted to 8.5 mL. After completely dissolved, the compound Ic-1 was administered orally. The volume of administration was 5 ml/kg.
# Male C57BL/6 mice weighed 18-22 g were selected at the beginning of experiment. Each cage had 4 mice which were allowed to feed and drink water freely. Each experimental group had 12 mice, and the experimental mice were labeled by tail labeling method.
# Day 0: At 4:30 pm, the mice were put in a plexiglass box with stainless steel mesh, and then the plexiglass box was put in cold environment (4±2° C.) overnight. The mice were allowed to feed freely and drink, and agar was used to replace water.
# Day 1: At 10:00 am, the mice were delivered to room temperature (24±2° C.) environment for 30 min, and then the mice were delivered to cold environment for 30 min. The above steps were repeated until 4:[…], and the mice were put in cold environment overnight.
# Day 2: the operation on day 1 was repeated.
# Day 3: the mice were taken out from cold environment at 10:00 am.
# The compounds were administered orally according to the schedule of experiment, and the dosage was 10 mg/kg.
# On the fourth day after modeling, the pre-administration mechanical allodynia test was performed on the animals. Animals with PWT value greater than 0.5 g were excluded and were not used for experiments. On the fifth day after modeling, the animals were tested for mechanical allodynia at 0.5 h, 1 h, and 2 h after the administration of compounds. […]
# During the test, rapid withdrawal of animal claw was recorded as pain response. When the test fiber was removed from animal skin, the withdrawal of animal claw was also recorded as pain response. If animal moved, the pain response was not recorded, and the test was repeated. […] The maximum strength of tested fiber was 4.17 (1.4 g). • The test results were recorded in Table 4 below, wherein pain response was recorded as X and no pain response was recorded as O. […]
compound,measurement,setting,value
"CNCC[C@H](Oc1cccc2ccccc12)c1cccs1 [Duloxetine (S configuration), Duloxetine]",PWT (g) Mean ± SD,0.5 h after administration,0.416 ± 0.140 g
same,PWT (g) Mean ± SD,1 h after administration,0.648 ± 0.155 g
same,PWT (g) Mean ± SD,2 h after administration,0.530 ± 0.235 g
